Here are results for 1 compound from US20260083924A1, “CAPSULE INHALER FOR THE ADMINISTRATION OF A PHOSPHODIESTERASE-4 INHIBITOR” (CHIESI FARMACEUTICI S.P.A., priority 2022, published 2026).

Data set [1] can be described thus: In vitro dissolution test (RespiCell) on fine fraction collected by Fast Screening Impactor. In kind it is physicochemical. The following applies: FIG. 3; 800 μg dose, HR RS01 or UHR RS01 vs Nexthaler; PBS with 0.5% SDS, 37 °C. As for the experimental part:
In vitro dissolution tests were carried out to compare the performance of the Reference Products and the drug product of the invention at 800 μg, using RespiCell™ (EU registration No 006649570-0001), a vertical diffusion cell apparatus that comprises a 170 cm^3 reservoir filled with the dissolution media and a side arm of 10 cm length. The apparatus is composed of an upper part, the donor chamber, and a lower part, the receptor chamber, linked by a clamp and separated by a glass fiber filter, used as diffusion membrane, and sit horizontally in contact with the dissolution medium. The receptor chamber contains a magnetic stirrer inside it. Type A/E glass fiber filter of 76 mm diameter (PALL Corporation, Port Washington; NY, USA) were employed as diffusion membrane. The dissolution medium employed for the analysis was phosphate-buffer saline (PBS) with 0.5% of Sodium dodecyl sulfate (SDS). RespiCell™ was connected to a heating thermostat (Lauda eco silver E4, DE) set at 37±0.5° C. […] The amount of drug in the samples was assessed by HPLC. The data were expressed as percentage of the compound of formula (I) dissolved and 100% of the dissolution corresponded to the drug amount dissolved at the end of experiment. […] The difference factor (f1) is calculated as follows: […]

The conditions of data set [2]: inhalation; multi-dose Nexthaler vs single-dose Aerolizer; cited from earlier work.

The structures appear in SMILES notation.

With `CS(=O)(=O)Nc1ccc(C(=O)O[C@@H](Cc2c(Cl)c[n+]([O-])cc2Cl)c2ccc(OC(F)F)c(OCC3CC3)c2)cc1OCC1CC1` [compound of formula (I), 3,5-dichloro-4-[(2S)-2-[3-(cyclopropylmethoxy)-4-(difluoromethoxy)phenyl]-2-{[3-(cyclopropylmethoxy)-4-(methanesulfonamido)benzoyl]oxy}ethyl]pyridinel-oxide], the “amount of the compound of formula (I) dissolved, higher in comparison to the Reference Product” value in data set [1] is listed as 7-20%. Further, the “weighted AUC systemic bioavailability, higher via Nexthaler than via Aerolizer” value in data set [2] is “about 30%”.
